From patent US20240018133A1, “MODULATORS OF THE INTEGRATED STRESS PATHWAY” (Calico Life Sciences LLC, priority 2019, published 2024) come the findings set out here.

For this assay, the system named is ATF4 luciferase reporter (human full-length ATF4 5'-UTR fused to firefly luciferase) in HEK293T cells. Briefly: ATF4-Luc assay (in vitro model of VWMD): HEK293T cells carrying ATF4 luciferase reporter, tunicamycin-treated. It counts as cell-based. The conditions noted are these: Homo sapiens, HEK-293T, 1 μg/mL tunicamycin, 7 hours, One Glo luminescence. The method, boiled down:
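Stable HEK293T line with human ATF4 5′-UTR–firefly luciferase reporter treated with 1 μg/mL tunicamycin plus 200 nM compound for 7 h. Luminescence read; EC50 derived.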
A general note: Reporter assays use an easily measured gene product as a stand-in for the process of interest.
In general, EC50 refers to the concentration needed to bring the measured effect to its halfway point. Consider `CS(=O)(=O)N[C@@H]1C[C@@H](C(=O)NC23CC(NC(=O)COc4ccc(Cl)c(F)c4)(C2)C3)Oc2ccc(Cl)cc21` [Compound 245, (2S,4R)-6-chloro-N-{3-[2-(4-chloro-3-fluorophenoxy)acetamido]bicyclo[1.1.1]pentan-1-yl}-4-[(methanesulfonyl)amino]-3,4-dihydro-2H-1-benzopyran-2-carboxamide], for which the EC50 was less than 10 nM.
Regarding `O=C(COc1ccc(Cl)c(F)c1)NC12CC(NC(=O)C3CC(O)c4cc(F)c(Cl)cc4O3)(C1)C2` (stereo not drawn) [Compound 246, 7-chloro-N-{3-[2-(4-chloro-3-fluorophenoxy)acetamido]bicyclo[1.1.1]pentan-1-yl}-6-fluoro-4-hydroxy-3,4-dihydro-2H-1-benzopyran-2-carboxamide], the 50% effective concentration (EC50) was less than 10 nM.
With `O=C(COc1ccc(Cl)c(F)c1)NC12CC(NC(=O)C3CC(O)c4ccc(Cl)cc4O3)(C1)C2` (stereo not drawn) [Compound 247, 7-chloro-N-{3-[2-(4-chloro-3-fluorophenoxy)acetamido]bicyclo[1.1.1]pentan-1-yl}-4-hydroxy-3,4-dihydro-2H-1-benzopyran-2-carboxamide] the figure was less than 10 nM; with `O=C(COc1ccc(Cl)c(F)c1)NC12CC(NC(=O)C3CC(=O)c4cc(F)c(F)cc4O3)(C1)C2` (stereo not drawn) [Compound 248, N-{3-[2-(4-chloro-3-fluorophenoxy)acetamido]bicyclo[1.1.1]pentan-1-yl}-6,7-difluoro-4-oxo-3,4-dihydro-2H-1-benzopyran-2-carboxamide], less than 10 nM; with `O=C(COc1ccc(Cl)c(F)c1)NC12CC(NC(=O)[C@H]3C[C@@H](O)c4cc(F)c(F)cc4O3)(C1)C2` [Compound 252, (2R,4R)—N-{3-[2-(4-chloro-3-fluorophenoxy)acetamido]bicyclo[1.1.1]pentan-1-yl}-6,7-difluoro-4-hydroxy-3,4-dihydro-2H-1-benzopyran-2-carboxamide], less than 10 nM.
As for `O=C(COc1ccc(Cl)c(F)c1)NC12CC(NC(=O)[C@@H]3C[C@H](O)c4cc(F)c(F)cc4O3)(C1)C2` [Compound 253, (2S,4S)—N-{3-[2-(4-chloro-3-fluorophenoxy)acetamido]bicyclo[1.1.1]pentan-1-yl}-6,7-difluoro-4-hydroxy-3,4-dihydro-2H-1-benzopyran-2-carboxamide], the EC50 is less than 10 nM.
With `Cc1ccc2c(c1)C(O)CC(C(=O)NC13CC(NC(=O)COc4ccc(Cl)c(F)c4)(C1)C3)O2` (stereo not drawn) [Compound 254, N-{3-[2-(4-chloro-3-fluorophenoxy)acetamido]bicyclo[1.1.1]pentan-1-yl}-4-hydroxy-6-methyl-3,4-dihydro-2H-1-benzopyran-2-carboxamide] the figure was less than 10 nM; with `O=C(COc1ccc(Cl)c(F)c1)NC12CCC(NC(=O)[C@H]3CC(=O)c4cc(Cl)ccc4O3)(C1)C2` [Compound 255, (2R)-6-chloro-N-{4-[2-(4-chloro-3-fluorophenoxy)acetamido]bicyclo[2.1.1]hexan-1-yl}-4-oxo-3,4-dihydro-2H-1-benzopyran-2-carboxamide], less than 10 nM; with `O=C(COc1ccc(Cl)c(F)c1)NC12CCC(NC(=O)[C@H]3C[C@@H](O)c4cc(Cl)ccc4O3)(C1)C2` [Compound 256, (2R,4R)-6-chloro-N-{4-[2-(4-chloro-3-fluorophenoxy)acetamido]bicyclo[2.1.1]hexan-1-yl}-4-hydroxy-3,4-dihydro-2H-1-benzopyran-2-carboxamide], less than 10 nM.
To `C[C@@]1(C(=O)NC23CC(NC(=O)COc4ccc(Cl)c(F)c4)(C2)C3)Cc2cc(Cl)ccc2O1` [Compound 257, (2S)-5-chloro-N-{3-[2-(4-chloro-3-fluorophenoxy)acetamido]bicyclo[1.1.1]pentan-1-yl}-2-methyl-2,3-dihydro-1-benzofuran-2-carboxamide] belongs greater than 2000 nM; to `C[C@]1(C(=O)NC23CC(NC(=O)COc4ccc(Cl)c(F)c4)(C2)C3)Cc2cc(Cl)ccc2O1` [Compound 258, (2R)-5-chloro-N-{3-[2-(4-chloro-3-fluorophenoxy)acetamido]bicyclo[1.1.1]pentan-1-yl}-2-methyl-2,3-dihydro-1-benzofuran-2-carboxamide], greater than 2000 nM.
To `C[C@]1(C(=O)NC23CC(NC(=O)COc4ccc(Cl)c(F)c4)(C2)C3)Oc2ccc(Cl)cc2C1=O` [Compound 259, (2S)-5-chloro-N-{3-[2-(4-chloro-3-fluorophenoxy)acetamido]bicyclo[1.1.1]pentan-1-yl}-2-methyl-3-oxo-2,3-dihydro-1-benzofuran-2-carboxamide] belongs 500 to 2000 nM.
As to `O=C(COc1ccc(Cl)c(F)c1)NC12CCC(NC(=O)[C@H]3C[C@H](O)c4cc(Cl)ccc4O3)(C1)C2` [Compound 260, (2R,4S)-6-chloro-N-{4-[2-(4-chloro-3-fluorophenoxy)acetamido]bicyclo[2.1.1]hexan-1-yl}-4-hydroxy-3,4-dihydro-2H-1-benzopyran-2-carboxamide], the half-maximal effective concentration (EC50) is less than 10 nM.
To `O=C(COc1ccc(Cl)c(F)c1)NC12CC(NC(=O)C3Cc4cc(Cl)ccc4N3)(C1)C2` (stereo not drawn) [Compound 261, 5-chloro-N-{3-[2-(4-chloro-3-fluorophenoxy)acetamido]bicyclo[1.1.1]pentan-1-yl}-2,3-dihydro-1H-indole-2-carboxamide] belongs 50 to 250 nM; to `C[C@]1(C(=O)NC23CC(NC(=O)COc4ccc(Cl)c(F)c4)(C2)C3)Oc2ccc(Cl)cc2C1O` (stereo partly drawn) [Compound 262, (2S)-5-chloro-N-{3-[2-(4-chloro-3-fluorophenoxy)acetamido]bicyclo[1.1.1]pentan-1-yl}-3-hydroxy-2-methyl-2,3-dihydro-1-benzofuran-2-carboxamide], greater than 2000 nM; to `C[C@@]1(C(=O)NC23CC(NC(=O)COc4ccc(Cl)c(F)c4)(C2)C3)Oc2ccc(Cl)cc2C1O` (stereo partly drawn) [Compound 263, (2R)-5-chloro-N-{3-[2-(4-chloro-3-fluorophenoxy)acetamido]bicyclo[1.1.1]pentan-1-yl}-3-hydroxy-2-methyl-2,3-dihydro-1-benzofuran-2-carboxamide], greater than 2000 nM.
With `O=C(COc1ccc(Cl)c(F)c1)NC12CC(NC(=O)[C@H]3C[C@@H](O)c4cc(Cl)c(F)cc4O3)(C1)C2` [Compound 264, (2R,4R)-6-chloro-N-{3-[2-(4-chloro-3-fluorophenoxy)acetamido]bicyclo[1.1.1]pentan-1-yl}-7-fluoro-4-hydroxy-3,4-dihydro-2H-1-benzopyran-2-carboxamide] the figure was less than 10 nM; with `CN1c2ccc(Cl)cc2CC1C(=O)NC12CC(NC(=O)COc3ccc(Cl)c(F)c3)(C1)C2` (stereo not drawn) [Compound 266, 5-chloro-N-{3-[2-(4-chloro-3-fluorophenoxy)acetamido]bicyclo[1.1.1]pentan-1-yl}-1-methyl-2,3-dihydro-1H-indole-2-carboxamide], 50 to 250 nM; with `O=C(COc1ccc(Cl)c(F)c1)NC12CC(NC(=O)[C@H]3C[C@@H](O)c4ccccc4O3)(C1)C2` [Compound 267, (2R,4R)—N-{3-[2-(4-chloro-3-fluorophenoxy)acetamido]bicyclo[1.1.1]pentan-1-yl}-4-hydroxy-3,4-dihydro-2H-1-benzopyran-2-carboxamide], 10 to 50 nM.
For the compound `O=C(COc1ccc(Cl)c(F)c1)NC12CC(NC(=O)[C@H]3CC(=O)c4ccccc4O3)(C1)C2` [Compound 268, (2R)—N-{3-[2-(4-chloro-3-fluorophenoxy)acetamido]bicyclo[1.1.1]pentan-1-yl}-4-oxo-3,4-dihydro-2H-1-benzopyran-2-carboxamide], the EC50 fell in the range of 10 to 50 nM.
With `O=C(COc1ccc(Cl)c(F)c1)NC12CC(NC(=O)[C@@H]3CC(=O)c4ccccc4O3)(C1)C2` [Compound 269, (2S)—N-{3-[2-(4-chloro-3-fluorophenoxy)acetamido]bicyclo[1.1.1]pentan-1-yl}-4-oxo-3,4-dihydro-2H-1-benzopyran-2-carboxamide] the figure was 50 to 250 nM.
Regarding `O=C(COc1ccc(Cl)c(F)c1)NC12CC(NC(=O)[C@@H]3C[C@H](O)c4ccccc4O3)(C1)C2` [Compound 270, (2S,4S)—N-{3-[2-(4-chloro-3-fluorophenoxy)acetamido]bicyclo[1.1.1]pentan-1-yl}-4-hydroxy-3,4-dihydro-2H-1-benzopyran-2-carboxamide], the concentration for a half-maximal effect (EC50) was in the range of 50 to 250 nM.
To `O=C(COc1ccc(F)c(F)c1)NC12CC(NC(=O)[C@H]3CC(=O)c4cc(F)c(F)cc4O3)(C1)C2` [Compound 271, (2R)—N-{3-[2-(3,4-difluorophenoxy)acetamido]bicyclo[1.1.1]pentan-1-yl}-6,7-difluoro-4-oxo-3,4-dihydro-2H-1-benzopyran-2-carboxamide] belongs 10 to 50 nM; to `O=C(COc1ccc(F)c(F)c1)NC12CC(NC(=O)[C@H]3C[C@@H](O)c4cc(F)c(F)cc4O3)(C1)C2` [Compound 272, (2R,4R)—N-{3-[2-(3,4-difluorophenoxy)acetamido]bicyclo[1.1.1]pentan-1-yl}-6,7-difluoro-4-hydroxy-3,4-dihydro-2H-1-benzopyran-2-carboxamide], less than 10 nM; to `O=C(COc1ccc(F)c(F)c1)NC12CC(NC(=O)[C@@H]3C[C@H](O)c4cc(F)c(F)cc4O3)(C1)C2` [Compound 273, (2S,4S)—N-{3-[2-(3,4-difluorophenoxy)acetamido]bicyclo[1.1.1]pentan-1-yl}-6,7-difluoro-4-hydroxy-3,4-dihydro-2H-1-benzopyran-2-carboxamide], 10 to 50 nM.
`CCc1ncc(C(=O)NC23CCC(NC(=O)[C@H]4C[C@@H](O)c5cc(Cl)ccc5O4)(CC2)C[C@@H]3O)o1` [Compound 274, N-[(2S)-4-{[(2R,4R)-6-chloro-4-hydroxy-3,4-dihydro-2H-1-benzopyran-2-carbonyl]amino}-2-hydroxybicyclo[2.2.2]octan-1-yl]-2-ethyl-1,3-oxazole-5-carboxamide]: the EC50 fell in the range of 50 to 250 nM.
Consider `O=C(COc1ccc(F)c(F)c1)NC12CC(NC(=O)[C@H]3CC(=O)c4cc(Cl)ccc4O3)(C1)C2` [Compound 275, (2R)-6-chloro-N-{3-[2-(3,4-difluorophenoxy)acetamido]bicyclo[1.1.1]pentan-1-yl}-4-oxo-3,4-dihydro-2H-1-benzopyran-2-carboxamide], for which the 50% effective concentration (EC50) was less than 10 nM.
